The text below walks through data of PubChem BioAssay (NCI).

Experiment in all cases: inhibition of tumour cell growth, NCI panel, 48 h
Assay [1] concerns NCI-H23 lung.
Assay [2] relates to NCI-H522 lung.
The test system of assay [3] is SK-MEL-28 melanoma.
In assay [4] the test system is M14 melanoma.
For assay [5], the system named is HCT-116 colon.
Assay [6] relates to SW-620 colon.
Assay [7] relates to NCI/ADR-RES ovarian.
In assay [8] the test system is SF-268 CNS.
The test system of assay [9] is SN12C renal.
Assay [10] relates to HCT-15 colon.

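Assay format: 96-well plates, 48-hour exposure. GI50 marks 50% less growth. TGI is the concentration that stops growth completely.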 Where only a bound is given, the exact number is not on record here.

On to `OCC1=C[C@@](COCc2ccccc2)(OCc2ccccc2)[C@@H](OCc2ccccc2)[C@@H]1OCc1ccccc1`, for which the TGI in assay [1] is 38.8 µM; in [2] it was 51 µM; in assay [3], above 100 µM; in assay [4], above 100 µM; in assay [5] it was 47 µM; in assay [6], above 100 µM. The TGI in assay [7] is 16.9 µM; in assay [8], above 100 µM; in assay [9] it was 10.3 µM; in assay [10], 57.8 µM.

Turning to `Cc1ccc2c(=O)c3c(O)c4c(cc3n(C)c2c1)OC(C)(C)C=C4`, the TGI in assay [1], in assay [2], in assay [3], in assay [4], in assay [5] and in [6] was above 10 µM each time. In addition, the TGI in assay [7], in assay [8], in assay [9] and in assay [10] was above 10 µM each time.

In the case of `NC(=O)Nc1n[nH]c(-c2ccccc2)n1`, the TGI in assay [1], in [2], in assay [3], in assay [4], in assay [5] and in [6] was above 100 µM each time. For the same compound, the TGI in assay [7], in [8], in assay [9] and in assay [10] was above 100 µM throughout.

As to `Cn1c(=O)c2[nH]cnc2n(C)c1=O`, the TGI in [1], in assay [2], in [3], in [4], in assay [5] and in assay [6] was above 100 µM in each case. In addition, the TGI in [7], in assay [9] and in assay [10] was above 100 µM in each case.

Take `CC(=O)N/N=C1\NN(C(C)=O)C2(S1)C(=O)Nc1ccccc12` (configuration not stated): the TGI in assay [1], in assay [2], in assay [3], in assay [4], in [5] and in [6] was above 100 µM in each case. Also, the TGI in [7], in assay [8], in assay [9] and in assay [10] was above 100 µM each time.

On to `COc1cccc(C2c3cc4c(cc3OC(N3CCOCC3)C2C)OCO4)c1` (configuration not stated), for which the TGI was 75.3 µM in assay [2]; 71 µM in assay [4]; 34.9 µM in assay [5]; 16.7 µM in assay [6]; above 100 µM in [7]; 85.5 µM in assay [8]. For the same compound, the TGI in [9] and in assay [10] was above 100 µM each time.

With `COC(=O)C1CC(C=O)=C(SC)N1` (configuration not stated), the TGI in assay [1], in [2], in [3], in [4], in [5] and in assay [6] was above 50 µM each time. Also, the TGI in assay [7], in assay [8] and in assay [10] was above 50 µM in each case.

Regarding `COc1ccc(/C=C(\C#N)c2nc(-c3cc4ccccc4oc3=O)cs2)cc1`, the TGI in assay [2] was 57.5 µM; in assay [3], above 100 µM; in assay [4] it was 86 µM; in [5] it was above 100 µM; in [6], 66.8 µM; in assay [7], above 100 µM. Also, the values for the TGI in assay [8], in assay [9] and in assay [10] were 83.4 µM, above 100 µM and above 100 µM, respectively.

`C=C(Cl)C(=C)CCC(Cl)C(C)(C)Cl` (configuration not stated): the TGI in assay [1], in [2], in assay [3], in assay [4], in assay [5] and in [6] was above 100 µM each time. In addition, the TGI in [7], in assay [8] and in assay [9] was above 100 µM throughout.

For `O.O=[Se](=O)(O)O.[NH-]C1CCCCC1[NH-].[Pt+2]` (configuration not stated), the GI50 in assay [1] was 10.9 µM; in assay [2], 13.7 µM; in [3], 10.1 µM; in assay [5] it was 4.36 µM; in assay [6], 2.11 µM; in assay [7], 11.3 µM. Further, the GI50 was 8.09 µM in assay [8], 23.3 µM in [9] and 8.39 µM in assay [10]. The TGI in assay [1] is above 94.9 µM; in [2] it was above 59.4 µM; in assay [3], above 100 µM; in assay [5], above 100 µM; in [6], above 100 µM; in [7], above 100 µM. The TGI in [8], in assay [9] and in assay [10] was above 100 µM throughout.

For `CC(C)(CN1CCCCC1)C(=O)CC(SCCS(=O)(=O)O)c1ccc(Cl)c(Cl)c1` (configuration not stated), the TGI amounted to 15.8 µM in [1]; 5.59 µM in [2]; 3.8 µM in [4]; 10.6 µM in [5]; 4.61 µM in [6]; 22.9 µM in assay [7]. The TGI in assay [8] was determined as 15.1 µM; in [10], 5.35 µM.

Take `C=C1C(=O)OC2C1CC1OC2C(C)CCC/C(C)=C\CCC1(C)O` (configuration not stated): the TGI was determined as 29 µM in [1]; 26.2 µM in assay [2]; 43.1 µM in [3]; 41 µM in assay [5]; 32.6 µM in assay [6]; 55.2 µM in assay [7]. The TGI in assay [8] came to 51.8 µM; in [9], 62.5 µM; in [10], 63.6 µM.

For the compound `Clc1cccc(Cl)c1C1ON=C(c2ccccc2)N1C12CC3CC(CC(C3)C1)C2` (configuration not stated), the TGI is above 100 µM in assay [1]; above 100 µM in [2]; above 100 µM in [3]; above 100 µM in assay [4]; 59.9 µM in [5]; 84.4 µM in [7]. Besides, the TGI in [8], in [9] and in [10] was above 100 µM throughout.

For the compound `Cn1cnc([N+](=O)[O-])c1Sc1nncc2[nH]cnc12`, the TGI in [1], in assay [2], in assay [3], in assay [4], in [5] and in [6] was above 100 µM throughout. Moreover, the TGI in assay [7], in assay [9] and in assay [10] was above 100 µM throughout.
